Assay results reported in US20240150424A1, “DIRECTED CHEMICAL CONJUGATE OF GLUCAGON-LIKE PEPTIDE-2 MUTANT, AND USE THEREOF” (PEG-BIO BIOPHARM CO.,LTD.(CHONGQING), priority 2021, published 2024).
Starred links: 1 amine or outer side, 2 acyl side, 3 side chain; linkers in the order of their positions; H or OH if unused. Non-standard residues stand in square brackets, D forms with d. Residues, ends and D or L forms follow the SMILES beside them. Groups on a side chain read outwards from the residue. No end group written: not given here. *: point of attachment. C18 diacid = O=C(O)CCCCCCCCCCCCCCCCC(=O)*; γGlu = O=C(O)[C@H](CCC(=O)[*:2])N[*:1]; AEEA = NCCOCCOCC(=O)O; Aib = CC(C)(N)C(=O)O

Experiments:
[1] = Pharmacokinetic study in rats (ELISA); type: in vivo, SD rats
Method: 10 adult SD rats weighing 200-300 g were equally divided into 2 groups, 5 rats each group. PF01 and PF04 were administered subcutaneously at a single dose of 3 mg/Kg, respectively. Serum samples of all rats were collected before administration and 8 h, 24 h, 48 h, 72 h and 96 h after administration, and plasma concentrations were determined by ELISA.

[2] = Pharmacokinetic study in Cynomolgus macaques (LC-MS/MS, NCA); type: in vivo
Method: 4 adult Cynomolgus macaques, half males and half females, were used. PF01 was administered by subcutaneous injection at a single dose of 0.05 mg/Kg. Blood samples were collected before administration and 4 h, 8 h, 12 h, 24 h, 48 h, 72 h, 96 h, 120 h, 192 h and 288 h after administration. The concentrations of PF01 in the samples were determined by LC-MS/MS. The plasma concentration data were analyzed using WinNonlin, a pharmacokinetic data analysis software. […] The t1/2, Cmax, Tmax, AUC, Cl and Vd were calculated using a non-compartmental model (NCA).

[3] = tested on: small intestine hyperplasia in minor mice; test: Test on promoting small intestinal hyperplasia in minor Kunming mice; type: in vivo
Method: Forty minor Kunming mice weighing 10 to 20 g were equally divided into […], 10 mice each group. The control group was subcutaneously administered with the placebo once a day for 9 days, the Ted group was subcutaneously administered at 1 mg/Kg once a day for 9 days, and the PF01 group and the PF04 group were subcutaneously administered at 3 mg/Kg once every three days for a total of 3 times. All experimental animals were weighed before administration. On the 10th day after administration, the body weight was weighed, blood was collected, and small intestine length and weight were determined.

[4] = tested on: 5-FU-induced diarrhea and intestinal mucosa injury model; test: Diarrhea and intestinal mucosa injury model caused by 5-FU in rats; type: in vivo, SD rats; conditions: for Number of animals with diarrhea (denominator): 10 rats each group
Method: Forty adult SD rats weighing 200 to 300 g were equally divided into 4 groups, 10 rats each group. A Model group was subcutaneously administered with the placebo once a day for 9 days, a Ted group was subcutaneously administered at 1 mg/Kg once a day for 9 days, and a PF01 group and a PF04 group were subcutaneously administered at 3 mg/Kg once every three days for a total of 3 times. All rats were intraperitoneally injected with 5-FU at 50 mg/Kg once a day on the 4th day to the 6th day. Diarrhea and body weight changes in rats were recorded every day after the first administration of 5-FU. On the 10th day, body weight was weighed, blood was collected, and jejunum was taken for case sections. Diarrhea was identified based on scores, with 0 indicating no diarrhea, 1 indicating mild diarrhea with feces adhering to the anus, 2 indicating moderate diarrhea with feces adhering to the hind legs and tail, 3 indicating severe diarrhea with feces adhering to the front legs and abdomen, and 4 indicating death. In Table 6, the numerator represents the diarrhea score, and the denominator represents the number of animals with diarrhea.

[5] = cited from earlier work
[6] = cited from earlier work; remark: listed apart in the source
GLP-2R = molecular target: T1, GLP-2R (Homo sapiens, UniProt O95838); test: In vitro activity (cAMP) assay of glucagon-like peptide-2 mutants in HEK-293-GLP-2R cells; type: cell-based; conditions: for in vitro activities compared with natural human glucagon-like peptide-2: summary statement
T1 construct: expressed in transfected cells; host or cells: HEK-293 cells, transfected and screened by Chongqing Paijin Biotechnology Co. Ltd. The receptor gene was constructed by Shanghai Shengbo Biomedical Technology Co. Ltd
T1 sequence (O95838 1-553): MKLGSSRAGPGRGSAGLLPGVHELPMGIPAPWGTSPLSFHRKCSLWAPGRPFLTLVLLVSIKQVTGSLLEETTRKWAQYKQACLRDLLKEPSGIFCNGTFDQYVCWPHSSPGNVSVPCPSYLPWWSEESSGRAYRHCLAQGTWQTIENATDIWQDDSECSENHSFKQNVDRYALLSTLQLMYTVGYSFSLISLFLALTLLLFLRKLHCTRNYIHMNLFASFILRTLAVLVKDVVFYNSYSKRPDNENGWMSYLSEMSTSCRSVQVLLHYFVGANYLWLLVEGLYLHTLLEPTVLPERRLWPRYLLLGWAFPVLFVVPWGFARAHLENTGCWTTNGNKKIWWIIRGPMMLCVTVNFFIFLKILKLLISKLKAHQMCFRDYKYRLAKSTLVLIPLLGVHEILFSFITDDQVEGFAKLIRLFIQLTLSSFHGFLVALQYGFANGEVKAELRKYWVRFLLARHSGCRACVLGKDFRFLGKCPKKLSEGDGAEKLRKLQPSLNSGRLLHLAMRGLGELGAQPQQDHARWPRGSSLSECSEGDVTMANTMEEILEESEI
Method: HEK-293-GLP-2R cells (HEK-293 cells were purchased from National Collection of Authenticated Cell Cultures, GLP-2R receptor gene sequence was recombinantly constructed by Shanghai Shengbo Biomedical Technology Co. Ltd., and HEK-293-GLP-2R cells were obtained by transfection and screening by Chongqing Paijin Biotechnology Co. Ltd.) were used to determine the in vitro activities of glucagon-like peptide-2 mutants. […] The cells were incubated at 37° C., 5% CO2 for 15 minutes, and then added with a cell lysis buffer. The cell lysates were extracted, and the OD value of cAMP was determined using a cAMP assay kit (RD company).

[7] = cynomolgus monkey, in vivo, Cynomolgus macaques, sc single dose of 0.05 mg/Kg
[8] = 10th day, Ted 1 mg/Kg sc once a day for 9 days, PF01/PF04 3 mg/Kg sc once every three days, 3 times
[9] = 24 h after the administration of 5-FU
[10] = 48 h after the administration of 5-FU
[11] = 72 h after the administration of 5-FU
[12] = 96 h after the administration of 5-FU

CC[C@H](C)[C@H](NC(=O)[C@H](Cc1ccccc1)NC(=O)[C@H](CC(=O)O)NC(=O)[C@H](CCCNC(=N)N)NC(=O)[C@H](C)NC(=O)[C@H](C)NC(=O)[C@H](CC(C)C)NC(=O)[C@H](CC(N)=O)NC(=O)[C@H](CC(=O)O)NC(=O)[C@H](CC(C)C)NC(=O)[C@@H](NC(=O)[C@@H](NC(=O)[C@H](CC(N)=O)NC(=O)[C@H](CCSC)NC(=O)[C@H](CCC(=O)O)NC(=O)[C@H](CC(=O)O)NC(=O)[C@H](CO)NC(=O)[C@H](Cc1ccccc1)NC(=O)[C@H](CO)NC(=O)CNC(=O)[C@H](CC(=O)O)NC(=O)CNC(=O)[C@@H](N)Cc1c[nH]cn1)[C@@H](C)O)[C@@H](C)CC)C(=O)N[C@@H](CC(N)=O)C(=O)N[C@@H](Cc1c[nH]c2ccccc12)C(=O)N[C@@H](CC(C)C)C(=O)N[C@H](C(=O)N[C@@H](CCC(N)=O)C(=O)N[C@H](C(=O)N[C@@H](CCCNC(=N)N)C(=O)N[C@H](C(=O)N[C@H](C(=O)N[C@@H](CC(=O)O)C(=O)NCC(=O)NCC(=O)NCC(=O)NCC(=O)N[C@@H](CO)C(=O)N[C@@H](CCCCNC(=O)COCCOCCNC(=O)COCCOCCNC(=O)CC[C@H](NC(=O)CCCCCCCCCCCCCCCCC(=O)O)C(=O)O)C(=O)O)[C@@H](C)O)[C@@H](C)CC)[C@@H](C)O)[C@@H](C)CC [PF01] (H-HGDGSFSDEMNTILDNLAARDFINWLIQTRITDGGGGSK([AEEA-AEEA-γGlu-C18 diacid])-OH)
Cmax ([1]; rat, in vivo, rats, sc single dose of 3 mg/Kg): 67500 ng/mL
half-life ([1]; rat, in vivo, rats, sc single dose of 3 mg/Kg, read-out: T1/2 (converted)): 20.3 h
half-life ([1]; rat, in vivo, summary statement in description, read-out: in vivo half-life in rats (converted)): 21 h
Tmax ([1]; rats, sc single dose of 3 mg/Kg): basically consistent with that of PF04
in vivo half-life, times longer than that of the natural hGLP-2 ([2]; based on T1/2 in Cynomolgus macaques): approximately 100 times
AUC [2, 7]: 21700 ng·h/mL
Cmax [2, 7]: 459 ng/mL
Tmax [2, 7]: 12 h
half-life ([2]; cynomolgus monkey, in vivo, Cynomolgus macaques, sc single dose of 0.05 mg/Kg, read-out: T1/2 (average) (converted)): 30.9 h
half-life ([2]; cynomolgus monkey, in vivo, summary statement in description, read-out: in vivo half-life in cynomolgus monkeys (converted)): 30 h

CC[C@H](C)[C@H](NC(=O)[C@H](Cc1ccccc1)NC(=O)[C@H](CC(=O)O)NC(=O)[C@H](CCCNC(=N)N)NC(=O)[C@H](C)NC(=O)[C@H](C)NC(=O)[C@H](CC(C)C)NC(=O)[C@H](CC(N)=O)NC(=O)[C@H](CC(=O)O)NC(=O)[C@H](CC(C)C)NC(=O)[C@@H](NC(=O)[C@@H](NC(=O)[C@H](CC(N)=O)NC(=O)[C@H](CCSC)NC(=O)[C@H](CCC(=O)O)NC(=O)[C@H](CC(=O)O)NC(=O)[C@H](CO)NC(=O)[C@H](Cc1ccccc1)NC(=O)[C@H](CO)NC(=O)CNC(=O)[C@H](CC(=O)O)NC(=O)CNC(=O)[C@@H](N)Cc1c[nH]cn1)[C@@H](C)O)[C@@H](C)CC)C(=O)N[C@@H](CC(N)=O)C(=O)N[C@@H](Cc1c[nH]c2ccccc12)C(=O)N[C@@H](CC(C)C)C(=O)N[C@H](C(=O)N[C@@H](CCC(N)=O)C(=O)N[C@H](C(=O)N[C@@H](CCCCN)C(=O)N[C@H](C(=O)N[C@H](C(=O)N[C@@H](CC(=O)O)C(=O)O)[C@@H](C)O)[C@@H](C)CC)[C@@H](C)O)[C@@H](C)CC [Teduglutide]
Body weight of mice at the end of the experiment [3, 8]: 18.06 ± 0.49 g
Serum citrulline content [3, 8]: 14.47 µg/mL
Small intestine length [3, 8]: 37.4 cm
Small intestine weight [3, 8]: 1.75 g
Body weight of mice before administration ([3]; baseline, before administration): 13.32 ± 0.49 g
Comparison of groups in mice body weight, serum citrulline, small intestine length and small intestine weight ([3]; text summary of Table 4): superior to the control group
Diarrhea score (numerator) [4, 9]: 0/0
Number of animals with diarrhea (denominator) [4, 9]: 0/0
Diarrhea score (numerator) [4, 10]: 4/4
Number of animals with diarrhea (denominator) [4, 10]: 4/4
Diarrhea score (numerator) [4, 11]: 4
Number of animals with diarrhea (denominator) [4, 11]: 3
Diarrhea score (numerator) [4, 12]: 3/3
Number of animals with diarrhea (denominator) [4, 12]: 3/3
Rank of citrulline (CIT) content between groups ([4]; FIG. 7, before chemotherapy, 48 h and 144 h after chemotherapy): citrulline content in the PF01 group>that in the PF04 group>that in the Ted group>that in the Model group
Case sections of jejunum: height of villi and number of crypt cells, rank of groups ([4]; FIG. 8, 10th day): the PF01 group>the PF04 group>the Ted group>the control group
Serum citrulline content 96 h after the first administration of 5-FU ([4]; Table 5, 96 h): 16.50 µg/mL
Serum citrulline content 48 h after the administration of 5-FU ([4]; Table 7, 48 h): 2.04 µg/mL
Serum citrulline content 96 h after the administration of 5-FU ([4]; Table 7, 96 h): 3.53 µg/mL
Serum citrulline content 144 h after the administration of 5-FU ([4]; Table 7, 144 h): 10.37 µg/mL
Serum citrulline content before the administration of 5-FU ([4]; Table 7, before 5-FU): 21.74 µg/mL
Body weight before the first administration of 5-FU ([4]; Ted 1 mg/Kg sc daily 9 days, PF01/PF04 3 mg/Kg sc every three days x3, 5-FU 50 mg/Kg ip day 4-6): 272.46 g
Body weight 24 h after the first administration of 5-FU ([4]; same regimen, 24 h): 274.36 g
Body weight 48 h after the first administration of 5-FU ([4]; same regimen, 48 h): 257.94 g
Body weight 72 h after the first administration of 5-FU ([4]; same regimen, 72 h): 260.95 g
Body weight 96 h after the first administration of 5-FU ([4]; same regimen, 96 h): 275.43 g
half-life in vivo in humans [5]: 2 h
in vivo half-life in rats ([6]; rats): 0.5 h

GLP-2(3-33): hydrolyzed, inactive GLP-2(3-33) formed by dipeptidyl peptidase IV (DGSFSDEMNTILDNLAARDFINWLIQTKITD; Glucagon-like peptide 2; UniProt P01275 148-178, looked up, fragment)
half-life in vivo ([6]; cited reference on catabolism in rats): 0.45 h

PT01: glucagon-like peptide-2 mutant, SEQ ID NO: 1: HGDGSFSDEMNTILDNLAARDFINWLIQTRITDGGGGSK
in vitro activities compared with natural human glucagon-like peptide-2 (GLP-2R): consistent with the natural human glucagon-like peptide-2

PT02: glucagon-like peptide-2 mutant, SEQ ID NO: 2: HAibDGSFSDEMNTILDNLAARDFINWLIQTRITDGGGGSK (H[Aib]DGSFSDEMNTILDNLAARDFINWLIQTRITDGGGGSK)
in vitro activities compared with natural human glucagon-like peptide-2 (GLP-2R): consistent with the natural human glucagon-like peptide-2
in vitro cell viability relative to that of Teduglutide (GLP-2R; text summary of Table 3, Teduglutide as a standard): comparable to that of Teduglutide

PT03: glucagon-like peptide-2 mutant, SEQ ID NO: 3: HGDGSFSDEMNTILDNLAARDFINWLIQTRITDGGGGSGGGGSK
in vitro activities compared with natural human glucagon-like peptide-2 (GLP-2R): consistent with the natural human glucagon-like peptide-2

PT04: glucagon-like peptide-2 mutant, SEQ ID NO: 4: HGDGSFSDEMNTILDNLAARDFINWLIQTHITDGGGGSK
in vitro activities compared with natural human glucagon-like peptide-2 (GLP-2R): consistent with the natural human glucagon-like peptide-2

hGLP-2: human glucagon-like peptide-2, SEQ ID NO: 9: HADGSFSDEMNTILDNLAARDFINWLIQTKITD
half-life in vivo in humans [5]: 0.12 h
